These results are taken from ChEMBL document CHEMBL2331077, “Sacchathridine A, a prostaglandin release inhibitor from Saccharothrix sp” (J Nat Prod, 2013).

The test system of assay [1] is SW982. The assay can be described thus: Inhibition of PGE2 release from bradykinin-stimulated human SW982 cells by fluorescence assay. The format is functional, cell-based.
The test system of assay [2] is SW982. The assay is described as follows: Growth inhibition of human SW982 cells up to 30 uM after 48 hrs by cell counting. The class given is functional, cell-based.

Calls of active or inactive are those of the source. The rule behind the calls is not given here.

Broadly, the IC50 is the concentration at which inhibition is half-maximal. Regarding `CS(=O)(=O)c1ccc(-n2nc(C(F)(F)F)cc2-c2ccc(F)cc2)cc1` [SC-58125], the half-maximal inhibitory concentration (IC50) in the assay with SW982 [1] was 33 nM.

For the compound `COC1=C(C)C(=O)c2ccc(O[C@@H]3O[C@@H](C)[C@H](O)[C@@H](O)[C@H]3O)c(NNC(C)=O)c2C1=O` [SACCHATHRIDINE A], the “growth inhibition (GI)” value in the assay with SW982 [2] is “inactive”. Also, in the assay with SW982 [1], the IC50 amounted to 1000 nM and the inhibition entry was “Dose-dependent effect”.
